Experimental data taken from US7030287B2, “Method of decreasing nitrate nitrogen and volatile organic compound in soil and groundwater” (Matsushita Electric Industrial Co., Ltd., priority 2001, dated 2006).

Legend:
[1] = Polluted soil experiment (Examples 4 to 7): 1,1-dichloroethylene concentration in polluted soil by GC-MS
Excerpt: (§1) FIG. 4 is a view showing an experiment facility used for effecting the method of decreasing nitrate nitrogen and volatile organic compounds in Example 4. A part (a) of FIG. 4 is a plan view of the experiment facility, and a part (b) of FIG. 4 is a side view thereof.
(§2) As shown in the part (a) of FIG. 4, the polluted soil 32 is provided approximately at the center of the experiment bath 34 so that it is surrounded by the experiment soil 33.
(§3) In Example 4, the concrete frame 31 in the form of square measure is a cube of 1 m square having open upper part, and artificial soil prepared by mixing kuroboku soil and loam in equivalent amounts was charged in the experiment bath 34 formed with the concrete frame 31 and allowed to stand outdoors (average temperature: 21° C.) for about 2 months.
(§4) Then, the surface of the artificial soil formed as described above was dug to form a hole in the form of cylinder having a diameter of 30 cm and a depth of 50 cm, and this hole was re-buried with the polluted soil 32.
(§5) The polluted soil was obtained by adding experiment materials (containing no nitrogen atom) such as fatty acids and alcohols of the present invention and comparative materials of conventional technologies used for comparison in an amount of 1 wt % to 1.2 ton of soil polluted with 1,1,1-trichloroethane and 1,1-dichloroethylene (containing about 1400 μg/L of […], about 50 μg/L of 1,1-dichloroethylene, by elution test according to Kankoku No. 46), and mixing kuroboku soil and loam in equivalent amounts uniformly.
(§6) To the polluted soil formed as described above was fed diammonium hydrogen phosphate having a concentration of 100 mg/L as a nutrient salt (nitrogen source) at a ratio of 140 L/day.
(§7) Under the above-mentioned conditions, the concentrations of 1,1,1-trichloroethane and 1,1-dichloroethylene in the polluted soil 32 were measured by gas chromatograph mass spectrometry 20 days after initiation of the experiment. Soils around the re-buried polluted soil 32 (soils on four corners A to D at a depth of 50 cm in FIG. 4) were sampled, and four-point average values of the total carbon concentration and total nitrogen concentration per soil dried weight were measured.
(§8) In the method of decreasing nitrate nitrogen and volatile organic compounds in Example 5, the same experiment facility (FIG. 4) as in Example 4 was used. Stearic acid was used as the decreasing agent such as fatty acids, alcohols and the like used in the present invention, and an iron powder having an average particle size of about 15 μm was added simultaneously with this stearic acid, to give polluted soil of compartment No. 1. In polluted soil of compartment No. 2, stearic acid and an aluminum powder having an average particle size of 180 μm were added in the same concentration as the polluted soil of compartment No. 1. The same experiment as in Example 4 was conducted on these polluted soils (compartment Nos. 1, 2).
(§9) In the method of decreasing nitrate nitrogen and volatile organic compounds in Example 6, the same experiment facility (FIG. 4) as in Example 4 was used. Beef tallow fatty acid was used as the decreasing agent such as fatty acids, alcohols and the like used in the present invention, and a bacteria previously cultured was inoculated to the soil and the same experiment as in Example 4 was conducted.
(§10) For obtaining the bacteria used in Example 6, 1,1,1-trichloroethane was controlled to 5000 μg/L, 1,1-dichloroethylene was controlled to 5000 μg/L, diammonium hydrogen phosphate was controlled to 800 mg/L and beef tallow fatty acid which was only carbon source was controlled to 0.5 wt % in soil collected at a point of 30 cm depth from the ground surface of agricultural land (tea field), and the medium was cultured at a temperature of 16° C. for 12 days.
(§11) In the method of decreasing nitrate nitrogen and volatile organic compounds in Example 7, the same experiment facility (FIG. 4) as in Example 4 was used. […]

[2] = Polluted soil experiment (Examples 4 to 7): 1,1,1-trichloroethane concentration in polluted soil by GC-MS
Excerpt: as §1, §2, §3, §4, §5, §6, §7, §8, §9, §10, §11

[3] = Artificial soil experiment (Example 1): materials mixed 1 wt % in kuroboku soil, analysis of water passed through the gravel layer; conditions: water passed through soil with 1 wt % material, nitrate nitrogen solution 90 mg/L added 100 mL/day
Description: FIG. 1 is a sectional view showing an artificial soil experiment facility used for effecting a soil experiment in a method of decreasing nitrate nitrogen and volatile organic compounds in Example 1.
On each experiment bath 7, nozzles are placed for adding a nitrate nitrogen solution, and these nozzles are communicated with a pipe 6 in which the nitrate nitrogen solution flows.
The following experiments were conducted using the artificial soil experiment facility constituted as described above.
In the experiment bath 7, a gravel layer 3 and experiment soil 2 are placed. In each experiment soil 2, a carrot seedling 5 is planted.
The ground surface area of the experimental bath 7 was 11 m^2, and the soil depth of the experimental soil 2 was 1.4 m. Kuroboku soil was used as the experimental soil 2. Under this experiment soil 2, a gravel layer 3 is formed by placing gravels at a thickness of 20 cm from the bottom.
In 14 compartments of experiment layers 7, five carrot seedlings having a leaf length of about 14 cm were planted in each compartment, and a nitrate nitrogen solution of which nitrate nitrogen concentration had been previously controlled to 90 mg/L was added continuously at a rate of 100 mL/day using a metering pump. Of 14 compartments of experiment layers 7, in compartments Nos. 1 to 9, experiment materials of the present invention were mixed in soil, and in compartments Nos. 10 to 14, comparative materials were mixed in soil, before experiments.
The experiment soils 2 in each test district and comparative district were made by uniformly mixing experiment materials (fatty acid, alcohol and the like) and comparative materials (materials used in conventional technologies) in a soil dry weight ratio of 1 wt %, previously.
In the artificial soil experiment facility constituted as described above, water passed through the gravel layer 3 was collected, and analyses of the nitrate nitrogen concentration, ammonia nitrogen concentration and total carbon concentration after 65 days were conducted according to JIS methods.

[4] = Artificial groundwater experiment (Example 2): 800 g hydrogen donor added from artificial well, analysis of sampled groundwater; conditions: 800 g material, nitrate nitrogen solution 40 mg/L added 12 mL/day
Excerpt: FIG. 2 is a sectional view showing an artificial groundwater experiment facility used for effecting a groundwater experiment in the method of decreasing nitrate nitrogen and volatile organic compounds in Example 2.
In the experiment bath 17 surrounded by the concrete block frame 11 in the artificial groundwater experiment facility, the ground surface area of the experiment soil 12 was 18 m^2, and the soil depth was 6.0 m. Under this experiment soil 12, a gravel layer 13 is formed at a thickness of 50 cm. A mixture of kuroboku soil and loam at a ratio of about 6:4 was used as the experiment soil 12.
In the experiment bath 17, an artificial well 14 constituted of a vinyl chloride tube having a diameter of 20 cm is provided. This artificial well 14 is provided at a position 0.5 m from the inner wall surface at one end of the experiment bath 17 (this inner wall surface is standard position) and has a depth of about 6 m, and reaches to the gravel layer 13. Further, a nitrate nitrogen solution addition piper 16 for adding a nitrate nitrogen solution is buried at a position 2 m from the inner wall surface (standard position) of the experiment bath 17 in the artificial groundwater experiment facility, extending to a position 4 m depth from the ground surface. A measurement water incorporating port 15 communicating to outside is provided on another inner wall surface opposite to the standard surface, one inner wall surface. This measurement water incorporating port 15 is formed at a position 50 cm from the bottom (corresponding to the uppermost part of the gravel layer 13), and provided for sampling measurement water which is groundwater.
The following experiments were conducted in 12 compartments using the artificial soil experiment facility constituted as described above.
In each experiment bath 17, a nitrate nitrogen solution of which nitrate nitrogen concentration had been previously controlled to 40 mg/L was added continuously from the end of the nitrate nitrogen solution adding pipe 16 (position 4 m from the ground surface) at a rate of 12 mL/day using a metering pump.
Under the above-mentioned conditions, movement of artificial groundwater is estimated to about 6.5 m/year. The present inventors have added 800 g of each hydrogen donor from the artificial well 14 in each test district and each comparative district. 30 days after initiation of the test, water was sampled from the measurement water incorporating port 15 formed at a position 50 cm from the bottom (corresponding to the uppermost part of gravel layer), and analyses of the nitrate nitrogen concentration, ammonia nitrogen concentration and total carbon concentration of the collected water were conducted according to JIS methods.

[5] = Example 7, nutrient salt containing nitrogen not added
[6] = Example 4, 1 wt % material in polluted soil (about 50 μg/L initially), diammonium hydrogen phosphate fed
[7] = Example 4, 1 wt % material in polluted soil (about 1400 μg/L initially), diammonium hydrogen phosphate fed

Molecule: CC(=O)O.CCCCCCCCCCCCCCCCCCN [Stearylamine acetate]
- 1,1-dichloroethylene concentration after 20 days [1, 5]: 28 µg/L
- 1,1,1-trichloroethane concentration after 20 days [2, 5]: 900 µg/L

Molecule: CCCCCCCCCCCCCCCCCCNCCCCCCCCCCCCCCCCCC [Distearylamine]
- 1,1-dichloroethylene concentration after 20 days [1, 5]: 24 µg/L
- 1,1,1-trichloroethane concentration after 20 days [2, 5]: 910 µg/L

Molecule: Sorbitan distearate
- Nitrate nitrogen concentration after 65 days [3]: 14 mg/L

Molecule: CCCCCCCC/C=C\CCCCCCCC(=O)O [Oleic acid, reference compound]
- 1,1-dichloroethylene concentration after 20 days [1, 6]: 21 µg/L
- 1,1,1-trichloroethane concentration after 20 days [2, 7]: 690 µg/L

Molecule: Sorbitan monopalmitate
- Nitrate nitrogen concentration after 30 days [4]: 5 mg/L

Molecule: OC[C@H]1O[C@@H](O[C@H]2[C@H](O)[C@@H](O)C(O)O[C@@H]2CO)[C@H](O)[C@@H](O)[C@H]1O (stereo partly drawn) [Lactose, reference compound]
- Nitrate nitrogen concentration after 65 days [3]: 41 mg/L

Molecule: CCCCCCCCCCCCCCCCCCO [Stearyl alcohol]
- Nitrate nitrogen concentration after 30 days [4]: 4 mg/L

Molecule: Myristilate
- Nitrate nitrogen concentration after 30 days [4]: 9 mg/L

Molecule: CCCCCCCCCCCCCCCCCC(=O)O[C@H]1CC[C@@]2(C)C(=CC[C@H]3[C@@H]4CC[C@H]([C@H](C)CCCC(C)C)[C@@]4(C)CC[C@@H]32)C1 [Cholesterol stearate]
- 1,1-dichloroethylene concentration after 20 days [1, 6]: 20 µg/L
- 1,1,1-trichloroethane concentration after 20 days [2, 7]: 650 µg/L

Molecule: CCCCCCCCCCCCCCCCOC(=O)CCCCCCCCCCCCCCC [Cetyl palmitate]
- Nitrate nitrogen concentration after 65 days [3]: 20 mg/L

Molecule: CC(=O)O [Acetic acid, reference compound]
- 1,1-dichloroethylene concentration after 20 days [1, 5]: 41 µg/L
- 1,1,1-trichloroethane concentration after 20 days [2, 5]: 1350 µg/L

Molecule: CCCCCCCCCCCCO [lauryl alcohol]
- Nitrate nitrogen concentration after 65 days [3]: 18 mg/L

Molecule: CCO [Ethanol, reference compound]
- 1,1-dichloroethylene concentration after 20 days [1, 6]: 19 µg/L
- 1,1,1-trichloroethane concentration after 20 days [2, 7]: 1100 µg/L

Molecule: CCCCCCCCCCCCCCCCCC(=O)O [Stearic acid]
- Nitrate nitrogen concentration after 65 days [3]: 22 mg/L
- 1,1-dichloroethylene concentration after 20 days [1, 6]: 24 µg/L
- 1,1,1-trichloroethane concentration after 20 days [2, 7]: 820 µg/L

Molecule: Polyoxyethylene octylphenyl ether
- 1,1-dichloroethylene concentration after 20 days [1, 6]: 24 µg/L
- 1,1,1-trichloroethane concentration after 20 days [2, 7]: 820 µg/L

Molecule: CCCCCCCCCCCCCCCCCCCCCCO [Behenyl alcohol]
- 1,1-dichloroethylene concentration after 20 days [1, 6]: 21 µg/L
- 1,1,1-trichloroethane concentration after 20 days [2, 7]: 920 µg/L

Molecule: CCCCCCCCCCCCCCOC(=O)CCCCCCCCCCCCC [Myristyl myristate]
- Nitrate nitrogen concentration after 30 days [4]: 5 mg/L

Molecule: CC(O)C(=O)O (stereo not drawn) [Lactic acid, reference compound]
- 1,1-dichloroethylene concentration after 20 days [1, 6]: 20 µg/L
- 1,1,1-trichloroethane concentration after 20 days [2, 7]: 870 µg/L

Molecule: Oleic monoglyceride
- 1,1-dichloroethylene concentration after 20 days [1, 6]: 19 µg/L
- 1,1,1-trichloroethane concentration after 20 days [2, 7]: 700 µg/L

Molecule: CCCCCCCCCCCCCCCCCC(N)=O [Stearic amide]
- 1,1-dichloroethylene concentration after 20 days [1, 5]: 24 µg/L
- 1,1,1-trichloroethane concentration after 20 days [2, 5]: 790 µg/L

Molecule: CO [Methanol, reference compound]
- 1,1-dichloroethylene concentration after 20 days [1, 5]: 49 µg/L
- 1,1,1-trichloroethane concentration after 20 days [2, 5]: 1330 µg/L

Molecule: CCCCCCCC(=O)O [Caprylic acid, reference compound]
- 1,1-dichloroethylene concentration after 20 days [1, 6]: 16 µg/L
- 1,1,1-trichloroethane concentration after 20 days [2, 7]: 960 µg/L

Molecule: CCCCCCCCCCCCCCCCCCC(=O)CCCCCCCCCCCCCCCCCC [Distearyl ketone]
- 1,1-dichloroethylene concentration after 20 days [1, 5]: 20 µg/L
- 1,1,1-trichloroethane concentration after 20 days [2, 5]: 830 µg/L

Molecule: CCCCCCCCCCCCCCN [Myristylamine]
- 1,1-dichloroethylene concentration after 20 days [1, 5]: 29 µg/L
- 1,1,1-trichloroethane concentration after 20 days [2, 5]: 940 µg/L

Molecule: Tetraglyceryl pentastearate
- Nitrate nitrogen concentration after 30 days [4]: 8 mg/L
